Data on 106 compounds can be found in the SangsterLogP compilation.

As for `C1CC1`, the logP (usually the decadic logarithm of the partition coefficient of the neutral form, usually between octanol and water) was determined as 1.72.

The compound `Nc1ccccc1-c1ccccc1` registered a logP of 2.84. In turn, `CCOc1cccc(O)c1` displayed a logP of 1.98. Next, `Cc1ncc(CO)c(CN)c1O`: -1.3; `Nc1ccc2cc3ccc(N)cc3nc2c1`: 1.83; `S=C1NCCN1`: -0.66.

Turning to `COC(=O)C(C#N)=NNc1cccc(Cl)c1`, the logP is 3.6. For `CNc1ccc([N+](=O)[O-])cc1`, the logP was 2.04. On to `CCCCOCCO`, for which the logP amounted to 0.83. `CN(C)C(=O)Nc1ccccc1` yielded a logP of 0.98. `CC(N)C(O)c1cccc(O)c1` (stereo unspecified) returned a logP of -0.27.

In turn, `CC(O)Cn1cnc2c1c(=O)n(C)c(=O)n2C` (stereo unspecified) displayed a logP of -0.77. For the compound `Nc1cc[nH]c(=O)n1`, the logP is -1.73.

In the case of `CN(C)CC/C=C1\c2ccccc2Sc2ccc(Cl)cc21`, the logP is 5.18. For the compound `COC(=O)C(C#N)=NNc1cccc(C(F)(F)F)c1`, the logP worked out at 3.78. In the case of `CCc1ccc(O)cc1`, the logP was 2.58. Next, `CNCC(O)c1ccc(O)c(O)c1` (stereo unspecified): -1.37. As for `NC(=O)Cc1cccnc1`, the logP is -0.71. In the case of `CCc1ccccc1Cl` it was 2.95; in that of `CC(=O)C(C#N)=NNc1cc(Cl)cc(Cl)c1`, 4.68. In the case of `Cc1cc(=O)oc2cc(O)ccc12` it was 1.9; in that of `COC(=O)c1ccccc1O`, 2.55. `CNS(=O)(=O)c1ccc(N)cc1` returned a logP of -0.01. In the case of `C=C1C(=O)OC2CC(C)C3C=CC(=O)C3(C)C(O)C12` (stereo unspecified), the logP amounted to 0.87.

The compound `OCCCCc1ccccc1` came in with a logP of 2.35. Take `NC(=O)/C=C/c1ccccc1`: the logP is 1.43. `COc1ccc(CN(CCN(C)C)c2ccccn2)cc1` registered a logP of 3.27. In the case of `COc1cc(CCN)cc(OC)c1Br`, the logP stood at 2.03. As for `CN(c1ccccc1)c1ccccc1`, the logP was determined as 3.9. `NS(=O)(=O)c1ccccc1Cl` yielded a logP of 0.74. `FC(F)(F)c1ccccc1` showed a logP of 3.01.

Consider `CN1C(=O)NC(=O)C(C)(C2=CCCCC2)C1=O` (stereo unspecified), for which the logP stood at 1.98.

Consider `N=c1ccn(O)c2ccccc12`, for which the logP was determined as 0.05. In the case of `Clc1ccc(Cl)cc1` it was 3.44. In the case of `NC(N)=O`, the log partition coefficient (logP) is -2.11. The compound `NC(=O)c1ccccc1O` returned a logP of 1.28. As for `Cc1ccccc1O`, the logP turned out to be 1.95.

`NS(=O)(=O)c1ccc(Cl)c(Cl)c1` displayed a logP of 1.44.

Consider `C=CCNCC`, for which the logP stood at 0.81. Compound `Oc1ccnc(S)n1` yielded a logP of -0.28.

`NC(=O)Cc1ccncc1` showed a logP of -0.65. `COC` registered a logP of 0.1. Turning to `OCCCCCc1ccncc1`, the logP turned out to be 1.39. Next, `NNC(=O)c1ccnc(Cl)c1`: 0.11. `Cc1cn([C@H]2C[C@H](F)[C@@H](CO)O2)c(=O)[nH]c1=O` came in with a logP of -0.28.

`CC(=O)c1ccc([N+](=O)[O-])cc1` had a logP of 1.53. `O=[N+]([O-])c1ccc2c(ccc[n+]2[O-])c1` registered a logP of 0.39.

As for `O=C1C=C(Cl)C(=O)c2ccccc21`, the logP is 2.29. Turning to `O=C(O)c1ccccn1`, the logP was determined as 0.72. For `O=c1cn[nH]c(=O)[nH]1`, the logP was -0.59. Consider `O=C(O)c1ccccc1O`, for which the logP worked out at 2.26. `O=C1CN(/N=C/c2ccc([N+](=O)[O-])o2)C(=O)N1` came in with a logP of -0.47.

Turning to `O=C(O)CSc1ccccc1`, the logP stood at 1.91. Compound `COc1ccccc1NC(C)=O` yielded a logP of 0.67. Next, `CCOc1ccc(O)cc1`: 1.81; `CNCc1ccccc1`: 1.52; `Cc1cc(O)c(C(C)(C)C)cc1CC(N)=O`: 2.67. `CCN(C)C` returned a logP of 0.7. As to `c1ccc(Cc2ccccc2)cc1`, the logP was determined as 4.14. In the case of `c1ccc2nc3ccccc3cc2c1`, the logP was determined as 3.4. `Cc1ccccc1S(N)(=O)=O` came in with a logP of 0.84. In the case of `Cc1cccc2c(C)cccc12` it was 4.38. Compound `Cc1ccc2cccc(O)c2n1` gave a logP of 2.33. In the case of `c1ccc2[nH]ccc2c1` it was 2.14; in that of `Clc1cccc(Cl)c1`, 3.53; in that of `CC(C)NCC(O)COc1cccc2[nH]ccc12` (stereo unspecified), 1.75. The compound `CCC(=O)c1cccc(OC(=O)NC)c1` returned a logP of 1.49.

`CCCN(CCC)S(=O)(=O)c1ccc(C(=O)O)cc1` showed a logP of 3.21. `CN(C)C(=O)Nc1cccc(Cl)c1` registered a logP of 2. `c1ccc2[nH]ncc2c1` displayed a lipophilicity (logP) of 1.77. `CC(C)[N+](=O)[O-]` displayed a log partition coefficient (logP) of 0.93. In the case of `[O-][n+]1ccc(Cl)c2ccccc21` it was 1.08.

Take `c1ccc2cc3ccccc3cc2c1`: the logP turned out to be 4.45. Turning to `COc1ccc2c3c1O[C@H]1[C@@H](O)C=C[C@H]4[C@@H](C2)N(C)CC[C@@]341`, the logP is 1.19. With `CCCCCCCCCCCC(=O)O`, the lipophilicity (logP) was determined as 4.6. Consider `Cc1cnc(NS(=O)(=O)c2ccc(N)cc2)nc1`, for which the logP was found to be 0.34. `NS(=O)(=O)c1cc2c(cc1Cl)N=CNS2(=O)=O` yielded a log partition coefficient (logP) of -0.24. Next, `Cc1ccc(Cl)cc1`: 3.33; `Oc1cc(O)cc(O)c1`: 0.16; `C=CCC1(CC)C(=O)NC(=O)NC1=O`: 0.95. `NS(=O)(=O)c1ccc([N+](=O)[O-])cc1` gave a logP of 0.64. `Cc1cccc(C)c1` returned a logP of 3.2. Next, `Oc1c(Br)cc(Br)cc1Br`: 4.13; `FCF`: 0.2.

Compound `CCCC(C)C1(CC)C(=O)NC(=S)NC1=O` (stereo unspecified) had a logP of 2.85.

Turning to `NCCc1ccccc1`, the logP was determined as 1.41.

`CCOC(=O)c1ccc(N)cc1` yielded a logP of 1.86. Consider `Nc1ncnc2c1ncn2[C@H]1C[C@H](F)[C@@H](CO)O1`, for which the logP turned out to be 0.08.

`CC=Cc1ccccc1` returned a logP of 3.35. For the compound `O=[N+]([O-])/C=C/c1cc([N+](=O)[O-])ccc1Cl`, the log partition coefficient (logP) is 2.23. Compound `c1ccoc1` registered a logP of 1.34. In turn, `O=C(O)COc1ccccc1[N+](=O)[O-]` had a logP of 1.13.

With `OCC1OC(Oc2ccc(O)cc2)C(O)C(O)C1O` (stereo unspecified), the logP was -1.35. `Clc1cccc(-c2ccccc2)c1` returned a logP of 4.58. Take `CN(C)C`: the logP was found to be 0.16. For the compound `OC1CCCCC1`, the logP stood at 1.23. Consider `O=c1ccn([C@H]2CC[C@@H](CO)O2)c(=O)[nH]1`, for which the logP is -1.

For the compound `C[N+]1([O-])C2CCC1CC(OC(=O)C(CO)c1ccccc1)C2` (stereo unspecified), the logP was found to be 0.98. In the case of `Nc1nc(N)c2ncn([C@H]3C[C@H](O)[C@@H](CO)O3)c2n1`, the logP was -0.52. On to `CC(=O)c1ccc(S(=O)(=O)NC(=O)NC2CCCCC2)cc1`, for which the logP is 2.44.

With `c1ccc2c(c1)[nH]c1ccccc12`, the logP was 3.72. Next, `Nc1ccc(Cl)cc1`: 1.83; `O=C1CCCO1`: -0.64; `Nc1ccc(C(=O)O)cc1Br`: 1.4. `C=CCNCCC`: the logP worked out at 1.33. The compound `CCN(CC)CCOC(=O)c1ccc(N)cc1` displayed a logP of 2.14.
